Literature values as cited in EP0420232B1, “Water soluble derivatives of glycoside bioflavonoids, processes for their preparation and related pharmaceutical compositions” (EUROPEAN PHARMACY Srl, priority 1989, dated 1991).

Legend:
[1] = background statement
[2] = at room temperature; background statement

| Structure (SMILES) | toxicity [1] | solubility in water [2] |
| --- | --- | --- |
| COc1ccc(-c2cc(=O)c3c(O)cc(O[C@@H]4O[C@H](CO[C@@H]5O[C@@H](C)[C@H](O)[C@@H](O)[C@H]5O)[C@@H](O)[C@H](O)[C@H]4O)cc3o2)cc1O [diosmin, 7-ramnoglycoside of 5,7,3'-trihydroxy-4'-methoxyflavone] | devoid of toxicity |  |
| C[C@@H]1O[C@@H](OC[C@H]2O[C@@H](Oc3c(-c4ccc(O)c(O)c4)oc4cc(O)cc(O)c4c3=O)[C@H](O)[C@@H](O)[C@@H]2O)[C@H](O)[C@H](O)[C@H]1O [rutin, 3-rutinoside of 3, 3', 4', 5,7-penthahydroxyflavone] | devoid of toxicity | very poorly soluble |
